42 compounds from EP1585727B1, “INDOLES USEFUL IN THE TREATMENT OF ANDROGEN-RECEPTOR RELATED DISEASES” (priority 2002, dated 2004) can be followed below.

Molecules are shown by their SMILES. Like-named read-outs stand apart in the source and are kept apart here. A value given as a limit tells only on which side of the number the result lay.

Test [1] deals with T1, human androgen receptor (Homo sapiens, UniProt P10275).
T1 construct: expressed in transfected cells; host or cells: Chinese hamster ovary (CHO) cells, cell line CHO-AR-pMMTV-LUC 1G12-A5-CA
T1 sequence (P10275 1-920): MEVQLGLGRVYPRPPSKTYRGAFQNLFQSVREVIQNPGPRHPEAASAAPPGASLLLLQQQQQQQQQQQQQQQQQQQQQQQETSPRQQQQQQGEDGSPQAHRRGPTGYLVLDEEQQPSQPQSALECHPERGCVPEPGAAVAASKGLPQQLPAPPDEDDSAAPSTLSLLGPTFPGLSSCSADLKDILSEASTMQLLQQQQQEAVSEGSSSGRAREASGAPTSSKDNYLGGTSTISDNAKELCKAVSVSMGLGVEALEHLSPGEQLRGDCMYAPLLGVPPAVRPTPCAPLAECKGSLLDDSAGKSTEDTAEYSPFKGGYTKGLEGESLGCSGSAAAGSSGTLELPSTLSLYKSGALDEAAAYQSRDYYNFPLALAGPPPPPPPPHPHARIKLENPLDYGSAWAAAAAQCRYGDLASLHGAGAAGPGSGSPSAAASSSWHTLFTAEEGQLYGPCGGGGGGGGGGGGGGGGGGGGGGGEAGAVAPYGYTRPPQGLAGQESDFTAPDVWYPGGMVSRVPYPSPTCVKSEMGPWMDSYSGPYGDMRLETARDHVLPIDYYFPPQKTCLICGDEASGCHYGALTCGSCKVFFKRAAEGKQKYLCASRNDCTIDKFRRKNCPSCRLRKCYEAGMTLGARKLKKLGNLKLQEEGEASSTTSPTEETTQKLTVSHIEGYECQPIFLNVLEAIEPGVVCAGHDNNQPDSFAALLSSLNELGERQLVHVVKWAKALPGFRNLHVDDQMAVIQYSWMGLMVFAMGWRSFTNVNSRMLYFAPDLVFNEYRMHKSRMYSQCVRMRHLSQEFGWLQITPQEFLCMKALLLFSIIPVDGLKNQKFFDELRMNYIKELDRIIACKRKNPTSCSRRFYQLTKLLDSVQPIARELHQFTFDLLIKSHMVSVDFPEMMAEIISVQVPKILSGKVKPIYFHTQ
Kind of test: Androgen receptor transactivation assay, antiandrogenic activity: inhibition of transactivation in the presence of 1 nM DHT (CHO-AR-pMMTV-LUC cells; Table 4). The class given is cell-based. The note with it: for Emax: intrinsic activity relative to reference antiandrogen Hydroxyflutamide (set at 100%); for EC50: antiandrogenic activity, read-out: ant EC50. Here is the method:
Compounds were tested for their Androgen Receptor activity in a transactivation assay and in a binding assay.
The (anti-)androgenic activity of test compounds (EC50 and intrinsic activity) was determined in an in vitro bioassay of Chinese hamster ovary (CHO) cells stably transfected with the human androgen receptor expression plasmid and a reporter plasmid in which the MMTV-promoter is linked to the luciferase reporter gene. The cell-line CHO-AR-pMMTV-LUC 1G12-AS-CA is described in Schoonen et al. (2000), Journal of Steroid Biochemistry and Molecular Biology 74(4):213-222. The antiandrogenic activity of a test compound was determined by the inhibition of the transactivation via the androgen receptor of the enzyme luciferase in the presence of 1 nM DHT (5 α-dihydrotestosterone, 17β-hydroxy-5α-androstan-3-one). Intrinsic activity of antiandrogenic activity was determined in the presence of the reference antiandrogen 2-Hydroxy-2-methyl-N-(4-nitro-3-trifluoromethyl-phenyl)-propionamide (Hydroxyflutamide), and set at 100%. For androgenic activity, maximal intrinsic activity in the presence of 100 nM DHT was set at 100%. Table 4 Androgen receptor activity

Test [2] addresses T1, human androgen receptor. Kind of test: Androgen receptor transactivation assay, androgenic activity in the presence of 0.1 µmol/l onapristone (CHO-AR-pMMTV-LUC cells; Table 5). The test is classed as cell-based. Here is the method: The androgenic activity (EC50, potency, and efficacy) of the compounds in Table 5 was determined in an in vitro bioassay of Chinese hamster ovary (CHO) cells stably transfected with the human androgen receptor expression plasmid and a reporter plasmid in which the MMTV promotor is linked to the luciferase reporter gene. The cell line CHO-AR-pMMTV-LUC 1G12-A5-CA is described in Schoonen et al. (J. Steroid Biochem. Molec. Biol. […]; 74: 213-222). The androgen receptor activity of compounds was determined in the presence of 0.1 µmol/l onapristone. The maximal efficacy in the presence of 100 nmol/l DHT was set as 100%. The potencies are expressed as percentage of DHT activity. Table 5 Androgen receptor activity

The mark [3] stands for this setting: in the presence of 1 nM DHT, read-out: ant efficacy.
[4] abbreviates: read-out: ant efficacy, in the presence of 1 nM DHT.

The EC50 is the concentration giving half of the maximal effect.

Turning to `CNC(=O)c1ccc2c(Sc3ccccc3[N+](=O)[O-])cn(Cc3cc(F)cc(F)c3)c2c1` [Compound 47, 1-(3,5-Difluoro-benzyl)-3-(2-nitro-phenylsulfanyl)-1H-indole-6-carboxylic acid methylamide], at human androgen receptor [1] (setting [3]), the Emax was under 20%.

Consider `CCCNC(=O)c1ccc2c(Sc3ccccc3[N+](=O)[O-])cn(Cc3cc(F)cc(F)c3)c2c1` [Compound 48], for which the Emax on human androgen receptor [1] (setting [4]) fell in the range of 20 to 50%.

With `CN(C)C(=O)c1ccc2c(Sc3ccccc3[N+](=O)[O-])cn(Cc3cc(F)cc(F)c3)c2c1` [Compound 49], the Emax on human androgen receptor [1] (setting [3]) is under 20%.

Take `O=[N+]([O-])c1ccccc1Sc1cn(Cc2cc(F)cc(F)c2)c2cc(F)ccc12` [Compound 50]: on human androgen receptor [1] (setting [3]), the Emax is under 20%.

On to `O=[N+]([O-])c1ccccc1Sc1cn(Cc2cc(F)cc(F)c2)c2ccc(F)cc12` [Compound 53], for which, on human androgen receptor [1] (setting [3]), the Emax is under 20%.

On to `O=[N+]([O-])c1ccccc1Sc1cn(Cc2cc(F)cc(F)c2)c2cccc(Cl)c12` [Compound 54], for which the Emax at human androgen receptor [1] (setting [3]) is under 20%.

`Cc1cccc2c1c(Sc1ccccc1[N+](=O)[O-])cn2Cc1cc(F)cc(F)c1` [Compound 55]: at human androgen receptor [1] (setting [3]), the Emax was under 20%.

As for `Nc1ccc2c(Sc3ccccc3[N+](=O)[O-])cn(Cc3cc(F)cc(F)c3)c2c1` [Compound 57, 1-(3,5-Difluoro-benzyl)-3-(2-nitro-phenylsulfanyl)-1H-indol-6-ylamine], the Emax at human androgen receptor [1] (setting [3]) is under 20%.

Take `CC(=O)Nc1ccc2c(Sc3ccccc3[N+](=O)[O-])cn(Cc3cc(F)cc(F)c3)c2c1` [Compound 58, N-[1-(3,5-Difluoro-benzyl)-3-(2-nitro-phenylsulfanyl)-1H-indol-6-yl]-acetamide]: the Emax at human androgen receptor [1] (setting [3]) was under 20%.

In the case of `O=C(Nc1ccc2c(Sc3ccccc3[N+](=O)[O-])cn(Cc3cc(F)cc(F)c3)c2c1)C(F)(F)F` [Compound 59, N-[1-(3,5-Difluoro-benzyl)-3-(2-nitro-phenylsulfanyl)-1H-indol-6-yl]-2,2,2-trifluoroacetamide], at human androgen receptor [1] (setting [3]), the Emax was under 20%.

As to `O=[N+]([O-])c1ccc2c(Sc3ccccc3[N+](=O)[O-])cn(Cc3cc(F)cc(F)c3)c2c1` [Compound 60], the Emax at human androgen receptor [1] (setting [4]) is under 20%.

`O=[N+]([O-])c1ccccc1Sc1cn(Cc2cc(F)cc(F)c2)c2cc(O)ccc12` [Compound 61, 1-(3,5-Difluoro-benzyl)-3-(2-nitro-phenylsulfanyl)-1H-indol-6-ol]: the EC50 at human androgen receptor [1] (in the presence of 1 nM DHT) was over 10 µM. Also, the Emax on human androgen receptor [1] (setting [3]) is under 20%.

Regarding `COc1ccc2c(S(=O)(=O)c3ccccc3[N+](=O)[O-])cn(Cc3cc(F)cc(F)c3)c2c1` [Compound 62, 1-(3,5-Difluoro-benzyl)-6-methoxy-3-(2-nitro-benzenesulfonyl)-1H-indole], at human androgen receptor [1] (setting [3]), the Emax was under 20%.

With `COc1ccc2c(Sc3ccccc3[N+](=O)[O-])cn(Cc3cc(F)cc(F)c3)c2c1` [Compound 63, 1-(3,5-Difluoro-benzyl)-6-methoxy-3-(2-nitro-phenylsulfanyl)-1H-indole], the Emax at human androgen receptor [1] (setting [3]) was under 20%.

With `COc1ccc2c([S+]([O-])c3ccccc3[N+](=O)[O-])cn(Cc3cc(F)cc(F)c3)c2c1` (stereo not drawn) [Compound 64, 1-(3,5-Difluoro-benzyl)-6-methoxy-3-(2-nitro-benzenesulfinyl)-1H-indole], the Emax at human androgen receptor [1] (setting [3]) lay within 50 to 80%.

Regarding `COc1ccc2c(Sc3ccccn3)cn(Cc3cc(F)cc(F)c3)c2c1` [Compound 65, 1-(3,5-Difluoro-benzyl)-6-methoxy-3-(pyridin-2-ylsulfanyl)-1H-indole], on human androgen receptor [1] (setting [3]), the Emax is under 20%.

`COc1ccc2c(Sc3cccc[n+]3[O-])cn(Cc3cc(F)cc(F)c3)c2c1` [Compound 66]: the Emax at human androgen receptor [1] (setting [3]) fell in the range of 20 to 50%.

As to `COc1ccc2c(Sc3ccccc3[N+](=O)[O-])cn(Cc3cccc(Cl)c3)c2c1` [Compound 67], the Emax on human androgen receptor [1] (setting [3]) was under 20%.

For the compound `COc1ccc2c(Sc3ccccc3[N+](=O)[O-])cn(Cc3cccc(C#N)c3)c2c1` [Compound 68], the Emax at human androgen receptor [1] (setting [3]) is under 20%.

For `COc1ccc2c(Sc3ccccc3[N+](=O)[O-])cn(Cc3cc(F)cc(C(F)(F)F)c3)c2c1` [Compound 69], the Emax on human androgen receptor [1] (setting [3]) was under 20%.

As to `COc1ccc2c(Sc3ccccc3[N+](=O)[O-])cn(Cc3cc(F)ccc3C(F)(F)F)c2c1` [Compound 70], on human androgen receptor [1] (setting [3]), the Emax is under 20%.

In the case of `COc1ccc2c(Sc3ccccc3[N+](=O)[O-])cn(Cc3cccc(F)c3)c2c1` [Compound 71], the Emax at human androgen receptor [1] (setting [3]) is under 20%.

`COc1cccc(Cn2cc(Sc3ccccc3[N+](=O)[O-])c3ccc(OC)cc32)c1` [Compound 72]: the Emax at human androgen receptor [1] (setting [3]) was under 20%.

Consider `COc1ccc2c(Sc3ccccc3[N+](=O)[O-])cn(Cc3cccc(C)c3)c2c1` [Compound 73], for which the Emax on human androgen receptor [1] (setting [3]) is under 20%.

Turning to `COc1ccc2c(Sc3ccccc3[N+](=O)[O-])cn(Cc3cccc([N+](=O)[O-])c3)c2c1` [Compound 74], the Emax on human androgen receptor [1] (setting [4]) is under 20%.

On to `COc1ccc2c(Sc3ccccc3[N+](=O)[O-])cn(Cc3cccnc3)c2c1` [Compound 75], for which, at human androgen receptor [1] (setting [3]), the Emax is under 20%.

As for `COc1ccc2c(Sc3ccccc3[N+](=O)[O-])cn(Cc3ccc(Cl)c(C(F)(F)F)c3)c2c1` [Compound 76], on human androgen receptor [1] (setting [3]), the Emax was under 20%.

`COc1ccc2c(Sc3ccccc3[N+](=O)[O-])cn(Cc3cccc(OC(F)(F)F)c3)c2c1` [Compound 77]: the Emax on human androgen receptor [1] (setting [3]) is under 20%.

With `COc1ccc2c(Sc3ccccc3[N+](=O)[O-])cn(Cc3cccc(C(F)(F)F)c3)c2c1` [Compound 78], at human androgen receptor [1] (setting [3]), the Emax is under 20%.

As to `COc1ccc2c(Sc3ccccc3[N+](=O)[O-])cn(Cc3csc(C)n3)c2c1` [Compound 79], the Emax on human androgen receptor [1] (setting [3]) is under 20%.

Consider `COc1ccc2c(Sc3ccccc3[N+](=O)[O-])cn(Cc3c(C)noc3C)c2c1` [Compound 80], for which the EC50 on human androgen receptor [1] (in the presence of 1 nM DHT) was over 10 µM. The Emax on human androgen receptor [1] (setting [3]) was 20 to 50%.

Turning to `COc1ccc2c(Sc3ccccc3[N+](=O)[O-])cn(Cc3ccc(Cl)cc3)c2c1` [Compound 81], the Emax on human androgen receptor [1] (setting [3]) lay in the range of 50 to 80%.

With `COc1ccc2c(Sc3ccccc3[N+](=O)[O-])cn(Cc3ccc(C#N)cc3)c2c1` [Compound 82], the Emax on human androgen receptor [1] (setting [3]) is under 20%.

For `COc1ccc2c(Sc3ccccc3[N+](=O)[O-])cn(Cc3ccc(F)cc3)c2c1` [Compound 83], the Emax at human androgen receptor [1] (setting [3]) is under 20%.

On to `COc1ccc(Cn2cc(Sc3ccccc3[N+](=O)[O-])c3ccc(OC)cc32)cc1` [Compound 84], for which the Emax at human androgen receptor [1] (setting [3]) was over 80%.

In the case of `COc1ccc2c(Sc3ccccc3[N+](=O)[O-])cn(Cc3ccc(C)cc3)c2c1` [Compound 85], the Emax on human androgen receptor [1] (setting [3]) lay in the range of 20 to 50%.

Regarding `COc1ccc2c(Sc3ccccc3[N+](=O)[O-])cn(Cc3cnc(Cl)s3)c2c1` [Compound 87], the Emax on human androgen receptor [1] (setting [3]) was under 20%.

For the compound `COc1ccc2c(Sc3ccccc3[N+](=O)[O-])cn(Cc3ccc(Cl)s3)c2c1` [Compound 88], the Emax on human androgen receptor [1] (setting [3]) was under 20%.

With `COc1ccc2c(Sc3ccccc3[N+](=O)[O-])cn(CC3CCCCC3)c2c1` [Compound 89], at human androgen receptor [1] (setting [4]), the Emax is 20 to 50%.

For the compound `O=[N+]([O-])c1ccccc1Sc1cn(Cc2ccccc2)c2ccccc12` [Compound 90], the Emax at human androgen receptor [1] (setting [3]) was under 20%.

In the case of `COc1ccc2c(c1)c(Sc1ccccc1[N+](=O)[O-])cn2Cc1ccccc1` [Compound 91], on human androgen receptor [1] (setting [3]), the Emax is over 80%.

`COc1ccc2c(Sc3ccccc3[N+](=O)[O-])cn(Cc3ccncc3)c2c1` [Compound 93]: on human androgen receptor [2] (maximal intrinsic activity in the presence of 100 nM DHT set at 1.00), the ago efficacy entry was “+ (between 0.50 and 0.80)”. Moreover, the ago potency result on human androgen receptor [2] (potency expressed as percentage of DHT activity) is “± (between 0.1 % and 1%)”.
